Read-outs that look alike come from different tables or passages of the source.
Assays:
soybean [1] = settings: Magnesium chlorate 1600, Aciflurofen 96, combination 1600 + 96 gla/Ha
Experimental: The field trials were carried out at various locations in Brazil during spring. The percentage efficacy was calculated after 1, 4 and 7 days of applications.

soybean [2] = settings: Magnesium chlorate 1600, Aciflurofen 96, combination 1600 + 96 gla/Ha; remark: listed apart in the source
Experimental: Field trials were carried out to test the synergy of the combination magnesium chlorate and glufosinate-ammonium which is a protoporphyrinogen oxidase-inhibiting herbicides for desiccation in Soybean. The field trials were carried out at various locations in Brazil during spring. The percentage efficacy was calculated after 1, 4 and 7 days of applications.

Triticum aesti = format: in vivo, wheat; settings: Magnesium chlorate 3000, Glufosinate ammonium 1500, combination 3000 + 1500 mL/Ha
Experimental: (§1) The expected efficacy of a combination of magnesium chlorate and co-herbicide was calculated using the well-established Colby method.
In the Colby method, the expected (or predicted) response of a combination of herbicides is calculated by taking the product of the observed response for each individual component of the combination when applied alone divided by 100 and subtracting this value from the sum of the observed response for each component when applied alone. An unexpected enhancement in efficacy of the combination is then determined by comparing the observed response of the combination to the expected (or predicted) response as calculated from the observed response of each individual component alone. If the observed response of the combination is greater than the expected (or predicted) response, or stated conversely, if the difference between the observed and expected response is greater than zero, then the combination is said to be synergistic or unexpectedly effective. […]
(§2) The present inventors have adopted the Coby method to calculate synergy of the combination of defoliants. The % defoliation of individual defoliants was calculated and compared to the expected and observed defoliation efficacy.
The defoliation activity of the individual defoliants of the invention and their combinations were evaluated on multiple crops including wheat, soybean and cotton. […]

soybean [3] = format: in vivo; settings: Magnesium chlorate 1600, Glufosinate ammonium 240, combination 1600 + 240 mL/Ha
Experimental: as §1
(§3) In the Colby method, the expected (or predicted) response of a combination of herbicides is calculated by taking the product of the observed response for each individual component of the combination when applied alone divided by 100 and subtracting this value from the sum of the observed response for each component when applied alone. An unexpected enhancement in efficacy of the combination is then determined by comparing the observed response of the combination to the expected (or predicted) response as calculated from the observed response of each individual component alone. If the observed response of the combination is greater than the expected (or predicted) response, or stated conversely, if the difference between the observed and expected response is greater than zero, then the combination is said to be synergistic or unexpectedly effective. (Colby, S. R., Weeds, 1967 (15), p. 20-22) The Colby method requires only a single dose of each herbicide applied alone and the mixture of both doses.
as §2
(§4) The defoliation activity of the individual defoliants of the invention and their combinations were evaluated on multiple crops including wheat, soybean and cotton. The trial was carried out in Randomized Complete Block (RCB) method, all field trials were conducted using this method. Each trial were replicated four times and conducted under GEP guidelines. Application volumes were varied for each mixture. Such field trials were carried out at various locations so as to generate independent data, the locations were chosen randomly across Brazil.
(§5) Field trials were carried out to test the synergy of the combination magnesium chlorate and glufosinate-ammonium which is a ESPS inhibitor herbicide for desiccation in Soybean. The field trials were carried out at various locations in Brazil during spring. The percentage efficacy was calculated after 1 and 4 days of applications. The target crop for defoliation was soybean and the results are recorded in the table below: […]

soybean [4] = format: in vivo; settings: Magnesium chlorate 2000, Glufosinate ammonium 300, combination 2000 + 300 gla/Ha
Experimental: as §1, §3, §2, §4
as §5, with “1, 4” for “1”, “7” for “4”

Conyza Canadenesis = format: in vivo
Experimental: as §1, §3, §4
Field trials were carried out to test the synergy of the combination magnesium chlorate and glufosinate-ammonium which is a […] herbicides for controlling Conyza Canadenesis. The field trials were carried out at various locations in Brazil. The percentage efficacy was calculated after 3, 14 and 28 days of applications.

[5] = Magnesium chlorate 1200, Aciflurofen 72, combination 1200 + 72 gla/Ha
[6] = Magnesium chlorate 1600, Aciflurofen 96, combination 1600 + 96 gla/Ha
[7] = Magnesium chlorate 2000, Aciflurofen 120, combination 2000 + 120 gla/Ha
[8] = Magnesium chlorate 1200, Glufosinate 180, combination 1200 + 180 gla/Ha
[9] = Magnesium chlorate 1600, Glufosinate 240, combination 1600 + 240 gla/Ha
[10] = Magnesium chlorate 2000, Glufosinate 300, WG formulation 1600 + 300 gla/Ha

Experimental for Cenchrus echinatus: Field trials were carried out to test the synergy of the combination magnesium chlorate and acifluorfen for controlling Cenchrus echinatus. The field trials were carried out at various locations in Brazil. The percentage efficacy was calculated after 3, 14 and 21 days of applications.
Experimental for Digitaria insularis: Field trials were carried out to test the synergy of the combination magnesium chlorate and acifluorfen for controlling Digitaria insularis. The field trials were carried out at various locations in Brazil. The percentage efficacy was calculated after 3, 14 and 28 days of applications.
Experimental for Euphorbia heterophylla: Field trials were carried out to test the synergy of the combination magnesium chlorate and acifluorfen for controlling Euphorbia heterophylla. The field trials were carried out at various locations in Brazil. The percentage efficacy was calculated after 3, 14 and 28 days of applications.

Structure (SMILES): O=C(O)c1cc(Oc2ccc(C(F)(F)F)cc2Cl)ccc1[N+](=O)[O-] [Aciflurofen, acifluorfen]
- % control at 3 DAA Actual (Cenchrus echinatus; [5]): 13%
- % control at 3 DAA Actual (Cenchrus echinatus; [6]): 17.7%
- % control at 3 DAA Actual (Cenchrus echinatus; [7]): 18.3%
- % control at 14 DAA Actual (Cenchrus echinatus; [5]): 30%
- % control at 14 DAA Actual (Cenchrus echinatus; [6]): 50%
- % control at 14 DAA Actual (Cenchrus echinatus; [7]): 50%
- % control at 21 DAA Actual (Cenchrus echinatus; [5]): 50%
- % control at 21 DAA Actual (Cenchrus echinatus; [6]): 74.3%
- % control at 21 DAA Actual (Cenchrus echinatus; [7]): 61.7%
- % control at 3 DAA Actual (Digitaria insularis; [5]): 7.7%
- % control at 3 DAA Actual (Digitaria insularis; [6]): 28.3%
- % control at 3 DAA Actual (Digitaria insularis; [7]): 31.7%
- % control at 14 DAA Actual (Digitaria insularis; [5]): 38.3%
- % control at 14 DAA Actual (Digitaria insularis; [6]): 78.3%
- % control at 14 DAA Actual (Digitaria insularis; [7]): 87%
- % control at 28 DAA Actual (Digitaria insularis; [5]): 81.7%
- % control at 28 DAA Actual (Digitaria insularis; [6]): 98.7%
- % control at 28 DAA Actual (Digitaria insularis; [7]): 95.3%
- desiccation in soybean at 3 DAA Actual (soybean [1]): 91.0%
- desiccation in soybean at 14 DAA Actual (soybean [1]): 10%
- % control at 3 DAA Actual (Euphorbia heterophylla; [5]): 45%
- % control at 3 DAA Actual (Euphorbia heterophylla; [6]): 56.7%
- % control at 3 DAA Actual (Euphorbia heterophylla; [7]): 63.3%
- % control at 14 DAA Actual (Euphorbia heterophylla; [5]): 28.3%
- % control at 14 DAA Actual (Euphorbia heterophylla; [6]): 35.0%
- % control at 14 DAA Actual (Euphorbia heterophylla; [7]): 50%
- % control at 28 DAA Actual (Euphorbia heterophylla; [5]): 13.3%
- % control at 28 DAA Actual (Euphorbia heterophylla; [6]): 31.7%
- % control at 28 DAA Actual (Euphorbia heterophylla; [7]): 33.3%
- desiccation in soybean at 1 DAA Actual (soybean [2]): 0%
- desiccation in soybean at 4 DAA Actual (soybean [2]): 11.7%

Structure (SMILES): CP(=O)(O)CCC(N)C(=O)O (centres unmarked) [Glufosinate ammonium, glufosinate-ammonium]
- Defoliation in Triticum aesti at 3 DAA Actual (Triticum aesti): 78%
- desiccation in soybean at 1 DAA Actual (soybean [3]): 0%
- desiccation in soybean at 4 DAA Actual (soybean [3]): 18.3%
- desiccation in soybean at 1 DAA Actual (soybean [4]): 0%
- desiccation in soybean at 4 DAA Actual (soybean [4]): 30%
- desiccation in soybean at 7 DAA Actual (soybean [4]): 63.3%
- % control at 3 DAA Actual (Conyza Canadenesis; [8]): 13.3%
- % control at 3 DAA Actual (Conyza Canadenesis; [9]): 13.3%
- % control at 3 DAA Actual (Conyza Canadenesis; [10]): 63.3%
- % control at 14 DAA Actual (Conyza Canadenesis; [8]): 61.7%
- % control at 14 DAA Actual (Conyza Canadenesis; [9]): 90.7%
- % control at 14 DAA Actual (Conyza Canadenesis; [10]): 50%
- % control at 28 DAA Actual (Conyza Canadenesis; [8]): 58.3%
- % control at 28 DAA Actual (Conyza Canadenesis; [9]): 95%
- % control at 28 DAA Actual (Conyza Canadenesis; [10]): 33.3%

Structure (SMILES): [Mg+2].[O-][Cl+2]([O-])[O-].[O-][Cl+2]([O-])[O-] [Magnesium chlorate]
- % control at 3 DAA Actual (Cenchrus echinatus; [5]): 10.7%
- % control at 3 DAA Actual (Cenchrus echinatus; [6]): 11.3%
- % control at 3 DAA Actual (Cenchrus echinatus; [7]): 14%
- % control at 14 DAA Actual (Cenchrus echinatus; [5]): 14.3%
- % control at 14 DAA Actual (Cenchrus echinatus; [6]): 23.3%
- % control at 14 DAA Actual (Cenchrus echinatus; [7]): 30%
- % control at 21 DAA Actual (Cenchrus echinatus; [5]): 10.7%
- % control at 21 DAA Actual (Cenchrus echinatus; [6]): 12.3%
- % control at 21 DAA Actual (Cenchrus echinatus; [7]): 22.7%
- % control at 3 DAA Actual (Digitaria insularis; [5]): 6%
- % control at 3 DAA Actual (Digitaria insularis; [6]): 6%
- % control at 3 DAA Actual (Digitaria insularis; [7]): 7%
- % control at 14 DAA Actual (Digitaria insularis; [5]): 9.3%
- % control at 14 DAA Actual (Digitaria insularis; [6]): 11.7%
- % control at 14 DAA Actual (Digitaria insularis; [7]): 16%
- % control at 28 DAA Actual (Digitaria insularis; [5]): 41.7%
- % control at 28 DAA Actual (Digitaria insularis; [6]): 48.3%
- % control at 28 DAA Actual (Digitaria insularis; [7]): 31.7%
- Defoliation in Triticum aesti at 3 DAA Actual (Triticum aesti): 68%
- desiccation in soybean at 3 DAA Actual (soybean [1]): 84.3%
- desiccation in soybean at 14 DAA Actual (soybean [1]): 60%
- desiccation in soybean at 1 DAA Actual (soybean [3]): 21.7%
- desiccation in soybean at 4 DAA Actual (soybean [3]): 53.3%
- desiccation in soybean at 1 DAA Actual (soybean [4]): 30%
- desiccation in soybean at 4 DAA Actual (soybean [4]): 56.7%
- desiccation in soybean at 7 DAA Actual (soybean [4]): 58.3%
- % control at 3 DAA Actual (Conyza Canadenesis; [8]): 50%
- % control at 3 DAA Actual (Conyza Canadenesis; [9]): 55%
- % control at 3 DAA Actual (Conyza Canadenesis; [10]): 40%
- % control at 14 DAA Actual (Conyza Canadenesis; [8]): 51.7%
- % control at 14 DAA Actual (Conyza Canadenesis; [9]): 47.7%
- % control at 14 DAA Actual (Conyza Canadenesis; [10]): 33.3%
- % control at 28 DAA Actual (Conyza Canadenesis; [8]): 30%
- % control at 28 DAA Actual (Conyza Canadenesis; [9]): 35%
- % control at 28 DAA Actual (Conyza Canadenesis; [10]): 11.7%
- % control at 3 DAA Actual (Euphorbia heterophylla; [5]): 31.7%
- % control at 3 DAA Actual (Euphorbia heterophylla; [6]): 33.3%
- % control at 3 DAA Actual (Euphorbia heterophylla; [7]): 40%
- % control at 14 DAA Actual (Euphorbia heterophylla; [5]): 40%
- % control at 14 DAA Actual (Euphorbia heterophylla; [6]): 35%
- % control at 14 DAA Actual (Euphorbia heterophylla; [7]): 33.3%
- % control at 28 DAA Actual (Euphorbia heterophylla; [5]): 23.3%
- % control at 28 DAA Actual (Euphorbia heterophylla; [6]): 16.7%
- % control at 28 DAA Actual (Euphorbia heterophylla; [7]): 11.7%
- desiccation in soybean at 1 DAA Actual (soybean [2]): 21.7%
- desiccation in soybean at 4 DAA Actual (soybean [2]): 53.3%
